Like-named read-outs stand apart in the source and are kept apart here.
Legend:
Triticum aestivum = assay type: in vivo; details: field trial, scored about 4 weeks after application, mean of 2-4 plots
Method: (§1) The seeds or rhizome pieces of the harmful plants and the useful plants were laid out or were present in the soil, and they were grown under natural outdoor conditions. Treatment with the active compounds or active compound combinations was carried out […] before and/or after the emergence of the plants, generally at the 2- to 4-leaf stage, in various dosages using a water application rate of 100 to 400 l/ha (converted).
(§2) After the application (about 4 weeks after the application), the effectiveness of the active compounds or active compound combinations was scored visually by comparing the treated plots to untreated control plots. During scoring, damage and development of all above-ground parts of plants was assessed. Scoring was carried out using a percentage scale (100% effect=all plants have died; 50% effect=50% of the plants and the green parts of the plants have died; 0% effect=no effect observed=like control plot). In each case, the mean score of 2-4 plots was calculated.
(§3) The results are shown in the table below; the effect of the individual application of active compounds (A+B) and C being stated in brackets.

Veronica hederifolia = assay type: in vivo; details: field trial, scored about 4 weeks after application, mean of 2-4 plots
Method: as §1, §2, §3

[1] = application rate 15 g of active substance/hectare
[2] = application rate 80 g of active substance/hectare
[3] = application rate 20 g of active substance/hectare

Q: COc1cc(OC)nc(NC(=O)NS(=O)(=O)N(C)S(C)(=O)=O)n1 [amidosulfuron, 1-(4,6-dimethoxypyrimidin-2-yl)-3-mesyl-(methyl)sulfamoylurea] was tested. Which “Triticum aestivum % damage” value (Triticum aestivum; [1]) did it give?
A: 0%

Q: What about the “Veronica hederifolia % effect” value (Veronica hederifolia; [1]) of the same compound?
A: 20%

Q: How did the “Triticum aestivum % damage” value (Triticum aestivum; [2]) turn out when CCCCCCCC(=O)Oc1c(I)cc(C#N)cc1I [ioxynil-octanoate] was run?
A: 0%

Q: What about the “Veronica hederifolia % effect” value (Veronica hederifolia; [2]) of the same compound?
A: 45%

Q: What does the source list for CCCOc1nn(C(=O)[N-]S(=O)(=O)c2ccccc2C(=O)OC)c(=O)n1C.[Na+] [propoxycarbazone-sodium]?
A: Triticum aestivum % damage (Triticum aestivum; [3]): 1%; Veronica hederifolia % effect (Veronica hederifolia; [3]): 25%

— US20050026783A1, “Herbicide combinations comprising specific sulfonamides” (priority 2003, published 2005)
